pIC50: −log10 of the molar value.
Target: T1, Proteasome subunit beta type-5 (Homo sapiens, UniProt P28074)
T1 sequence (P28074 whole entry): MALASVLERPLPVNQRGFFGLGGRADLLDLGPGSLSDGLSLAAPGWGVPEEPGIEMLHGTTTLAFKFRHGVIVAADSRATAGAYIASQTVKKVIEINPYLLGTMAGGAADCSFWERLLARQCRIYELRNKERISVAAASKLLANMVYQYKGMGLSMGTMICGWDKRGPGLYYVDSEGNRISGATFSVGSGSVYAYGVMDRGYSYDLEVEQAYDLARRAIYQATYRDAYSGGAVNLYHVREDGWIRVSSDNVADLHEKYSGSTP
Experiment: 20S proteasome chymotrypsin-like inhibition assay

pIC50 | SMILES
6.00 | COc1ccc(C(=O)NC(CC(=O)N[C@@H](CC(C)C)C(=O)N[C@@H](CC(C)C)C(=O)[C@@]2(C)CO2)c2ccccc2)cc1 (some centres undefined) [4-Methoxy-N-{3-{S-4-methyl-1-[S-4-methyl-1-(R-2-methyloxiran-2-yl)-1-oxopentan-2-ylamino]-1-oxopentan-2-ylamino}-3-oxo-1-phenylpropyl} benzamide (21e)]
5.85 | CC(C)C[C@H](NC(=O)CC(NC(=O)c1ccccc1)c1ccccc1)C(=O)N[C@@H](CC(C)C)C(=O)[C@@]1(C)CO1 (some centres undefined) [N-{3-{S-4-Methyl-1-[S-4-methyl-1-(R-2-methyloxiran-2-yl)-1-oxopentan-2-ylamino]-1-oxopentan-2-ylamino}-3-oxo-1-phenylpropyl} benzamide (21c)]
6.01 | CC(C)C[C@H](NC(=O)CC(NC(=O)c1ccc(F)cc1)c1ccccc1)C(=O)N[C@@H](CC(C)C)C(=O)[C@@]1(C)CO1 (some centres undefined) [4-Fluoro-N-{3-{S-4-methyl-1-[S-4-methyl-1-(R-2-methyloxiran-2-yl)-1-oxopentan-2-ylamino]-1-oxopentan-2-ylamino}-3-oxo-1-phenylpropyl} benzamide (21d)]
5.73 | CC(C)C[C@H](NC(=O)CC(NC(=O)c1cccnc1)c1ccccc1)C(=O)N[C@@H](CC(C)C)C(=O)[C@@]1(C)CO1 (some centres undefined) [N-{3-{S-4-Methyl-1-[S-4-methyl-1-(R-2-methyloxiran-2-yl)-1-oxopentan-2-ylamino]-1-oxopentan-2-ylamino}-3-oxo-1-phenylpropyl} nicotinamide (21b)]

Reference: BindingDB's records for doi:10.1111/cbdd.12342 (Zhejiang University, 2014)
